The text below walks through data of ChEMBL document CHEMBL6103608, “Emerging RAS Inhibitors: Heterocyclic and Spirocyclic Compounds in Cancer Therapeutics” (ACS Med Chem Lett, 2025).

SMILES strings stand for the structures.

This experiment can be described thus: Inhibition of NRAS G12D mutant (unknown origin) expressed in human THP-1 cells assessed as reduction in ERK phosphorylation incubated for 2 hrs by AlphaLISA SureFire Ultra assay. It is filed as cell-based. Conditions: THP-1, 2 h. On the technique in general: In Alpha technology, singlet oxygen from a donor bead excites a nearby acceptor bead.

`C[C@@H]1OC2=NC(c3cc(N)cc(F)c3OC(F)(F)F)=C(F)C3C(Cl)=C(CCN(C)C)N=C(C23)N2C[C@H]3CC[C@H](N3)[C@@H]12` (stereo partly specified): the half-inhibitory concentration (IC50) (usually the concentration that inhibits the measured activity by half) was found to be 0.803 nM.
